The values that follow come from article PMC6526958 (Journal of medicinal chemistry, 2019).

The structures appear in SMILES notation.

Common to all, as to assay type: biochemical
The target in assay [1] is T1, recombinant soluble rat CD73 (Rattus norvegicus, UniProt P21588).
T1 sequence (P21588 29-551 limits assumed): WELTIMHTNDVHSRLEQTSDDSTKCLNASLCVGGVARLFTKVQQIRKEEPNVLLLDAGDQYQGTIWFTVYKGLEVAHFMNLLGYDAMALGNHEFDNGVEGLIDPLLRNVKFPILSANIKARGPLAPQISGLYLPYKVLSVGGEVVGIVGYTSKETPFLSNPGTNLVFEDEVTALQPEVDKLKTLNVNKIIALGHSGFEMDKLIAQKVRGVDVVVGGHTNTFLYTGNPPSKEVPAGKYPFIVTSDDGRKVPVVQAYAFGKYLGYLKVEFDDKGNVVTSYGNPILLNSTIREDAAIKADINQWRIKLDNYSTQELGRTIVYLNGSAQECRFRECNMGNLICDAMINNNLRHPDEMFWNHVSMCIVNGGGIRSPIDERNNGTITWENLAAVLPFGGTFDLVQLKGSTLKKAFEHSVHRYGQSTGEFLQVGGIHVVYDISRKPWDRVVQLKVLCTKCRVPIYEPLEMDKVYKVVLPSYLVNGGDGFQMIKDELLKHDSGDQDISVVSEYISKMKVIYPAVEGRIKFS
Nature of the assay: radiometric CD73 assay with [2,8-3H]AMP, recombinant soluble rat CD73.

For assay [2], the target named is T2, recombinant soluble human CD73 (Homo sapiens, UniProt P21589).
T2 sequence (P21589 28-549): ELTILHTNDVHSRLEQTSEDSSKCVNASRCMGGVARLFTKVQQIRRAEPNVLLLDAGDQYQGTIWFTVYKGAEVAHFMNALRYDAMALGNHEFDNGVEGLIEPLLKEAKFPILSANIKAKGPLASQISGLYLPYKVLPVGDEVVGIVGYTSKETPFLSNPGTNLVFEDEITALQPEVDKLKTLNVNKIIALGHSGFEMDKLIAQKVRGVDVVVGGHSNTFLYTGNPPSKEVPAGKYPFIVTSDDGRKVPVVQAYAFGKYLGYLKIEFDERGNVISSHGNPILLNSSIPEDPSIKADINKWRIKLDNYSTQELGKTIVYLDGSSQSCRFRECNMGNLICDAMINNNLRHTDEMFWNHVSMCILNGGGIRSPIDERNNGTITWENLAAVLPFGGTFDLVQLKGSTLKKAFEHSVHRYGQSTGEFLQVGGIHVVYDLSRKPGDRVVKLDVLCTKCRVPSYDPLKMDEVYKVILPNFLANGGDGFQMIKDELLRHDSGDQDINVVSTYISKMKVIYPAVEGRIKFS
Nature of the assay: radiometric CD73 assay with [2,8-3H]AMP, recombinant soluble human CD73.

The subject of assay [3] is recombinant soluble human CD73. The description is as above. The settings on record: human versus rat CD73.
The target in assay [4] is T3, membrane-bound CD73 (MDA-MB-231 membrane preparation) (Homo sapiens, UniProt P21589).
T3 sequence (P21589 27-574): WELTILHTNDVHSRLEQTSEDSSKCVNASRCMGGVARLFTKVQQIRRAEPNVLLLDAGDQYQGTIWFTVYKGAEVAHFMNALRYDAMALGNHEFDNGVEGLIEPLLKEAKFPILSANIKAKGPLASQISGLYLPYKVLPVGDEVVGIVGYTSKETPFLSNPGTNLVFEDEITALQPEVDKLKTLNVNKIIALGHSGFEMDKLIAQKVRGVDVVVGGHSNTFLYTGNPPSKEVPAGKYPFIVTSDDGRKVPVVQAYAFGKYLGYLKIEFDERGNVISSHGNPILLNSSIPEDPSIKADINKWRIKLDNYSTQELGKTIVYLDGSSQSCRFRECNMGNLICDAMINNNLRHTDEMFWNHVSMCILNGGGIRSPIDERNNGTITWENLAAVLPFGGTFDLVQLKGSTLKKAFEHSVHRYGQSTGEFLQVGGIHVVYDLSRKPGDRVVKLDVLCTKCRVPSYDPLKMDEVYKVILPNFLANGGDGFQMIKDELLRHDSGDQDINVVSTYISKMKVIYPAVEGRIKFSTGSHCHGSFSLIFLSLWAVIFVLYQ
Nature of the assay: radiometric CD73 assay, membrane preparations of MDA-MB-231 cells.

Turning to `O=c1[nH]c(=NOCc2ccc(C(F)(F)F)cc2)ccn1[C@@H]1O[C@H](COP(=O)(O)CP(=O)(O)O)[C@@H](O)[C@H]1O` [9d, N^4-[O-(4-Trifluoromethylbenzyloxy)]-cytidine-5′-O-[(phosphonomethyl)phosphonic acid]], the Ki in assay [1] is 30.3 ± 4.2 nM; in assay [2], 14 ± 1.6 nM; in assay [4] it was 10.1 ± 1.4 nM. The “fold more potent at human CD73 as compared to the rat enzyme” value in assay [3] was 2 to 3 fold.

As a reminder, the Ki is the equilibrium dissociation constant of an inhibitor or competing ligand from its target.
